Measurements: US8389011B2, “Pharmaceutical compositions of cholesteryl ester transfer protein inhibitors” (Bend Research, Inc., priority 2000, dated 2013)

Assay: In vitro dissolution test, microcentrifuge method, in phosphate buffered saline (PBS) pH 6.5
Assay type: physicochemical
Conditions: for AUC / Drug 2 Concentration: Table 5, PBS pH 6.5, 37° C.; for AUC: dose about 1000 μg/mL; for Drug 2 Concentration: Drug 2 dose about 1000 μg/mL
Protocol: The compositions comprising the CETP inhibitor and concentration-enhancing polymer provide enhanced concentration of the dissolved CETP inhibitor in in vitro dissolution tests. […] An appropriate PBS solution is an aqueous solution comprising 20 mM sodium phosphate (Na2HPO4), 47 mM potassium phosphate (KH2PO4), 87 mM NaCl, and 0.2 mM KCl, adjusted to pH 6.5 with NaOH. An appropriate MFD solution is the same PBS solution wherein additionally is present 7.3 mM sodium taurocholic acid and 1.4 mM of 1-palmitoyl-2-oleyl-sn-glycero-3-phosphocholine. In particular, a composition of the present invention can be dissolution-tested by adding it to MFD or PBS solution and agitating to promote dissolution.
Indeed, for some extremely insoluble CETP inhibitors, in order to identify the MDC achieved it may be necessary to use an amount of test composition such that if all of the CETP inhibitor dissolved, the CETP inhibitor concentration would be 10,000-fold or even more, that of the equilibrium concentration of the CETP inhibitor.
The MDC is taken to be the maximum value of dissolved CETP inhibitor measured over the duration of the test.
Filtration can be conducted using a 13 mm, 0.45 μm polyvinylidine difluoride syringe filter sold by Scientific Resources under the trademark TITAN®. Centrifugation is typically carried out in a polypropylene microcentrifuge tube by centrifuging at 13,000 G for 60 seconds. Other similar filtration or centrifugation methods can be employed and useful results obtained.
The spray-dried dispersions of Examples 6 and 7 were evaluated in an in vitro dissolution test using a microcentrifuge method. In this test, the spray-dried dispersion was added to a microcentrifuge tube for a Drug 2 dose of about 1000 μg/mL (7.2 mg for Example 6, 18 mg for Example 7). The tube was placed in a 37° C. sonicating bath, and 1.8 mL phosphate buffered saline (PBS) at pH 6.5 and 290 mOsm/kg was added. The samples were quickly mixed using a vortex mixer for about 60 seconds. The samples were centrifuged at 13,000 G at 37° C. for 1 minute. The resulting supernatant solution was then sampled and diluted 1:6 (by volume) with methanol and then analyzed by high-performance liquid chromatography (HPLC). The contents of the tubes were mixed on the vortex mixer and allowed to stand undisturbed at 37° C. until the next sample was taken. Samples were collected at 4, 10, 20, 40, 90, and 1200 minutes.
For Control 2, an in vitro dissolution test was performed using the procedures described above except that 1.8 mg of crystalline Drug 2 was used.
In this method, 7.2 mg of each spray-dried dispersion was added to a 2-mL microcentrifuge tube. The tube was placed in a 37° C. sonicating bath, and 1.8 mL of a phosphate-buffered saline (PBS) solution at pH 6.5 and 290 mOsm/kg was added, resulting in a TCmax of 400 μg/mL. The samples were quickly mixed using a combination of vortex mixer and sonication for about 90 seconds. The samples were centrifuged at 13,000 G at 37° C. for 1 minute. The resulting supernatant solution was then sampled and diluted 1:6 (by volume) with methanol and then analyzed by HPLC. The tubes were then mixed on the vortex mixer and allowed to stand undisturbed at 37° C. until the next sample. Samples were collected at 4, 10, 20, 40, 90 and 1200 minutes.
For Control 5, an in vitro dissolution test was performed using the procedure described above, except that 0.72 mg of non-crystalline Drug 3 was placed in a microcentrifuge tube and mixed with 1.8 mL of PBS.
In this method, 15 mg of each SDD was added to a 2-mL microcentrifuge tube. The tube was placed in a 37° C. sonicating bath, and 1.5 mL of a phosphate-buffered saline (PBS) solution at pH 6.5 and 290 mOsm/kg) was added, resulting in a TCmax of 1000 μg/mL. The samples were quickly mixed using a combination of vortex mixer and sonication for about 90 seconds.

[1] = Table 25: Drug 2, PBS, melt-congeal poloxamer dispersions
[2] = Table 28: Drug 2, PBS, spray-dried poloxamer dispersions
[3] = Table 37: Drug 2, PBS, CMEC dispersions

For `CCOC(=O)N1c2ccc(C(F)(F)F)cc2[C@@H](N(Cc2cc(C(F)(F)F)cc(C(F)(F)F)c2)C(=O)OC)C[C@H]1CC` [Control 2, [2R,4S]4-[(3,5-bis-trifluoromethyl-benzyl)-methoxycarbonyl-amino]-2-ethyl-6-trifluoromethyl-3,4-dihydro-2H-quinoline-1-carboxylic acid ethyl ester], the “actual Cmax,90 for Drug 2 in Control 2 (believed)” value (PBS, inferred from the accurately measured solubility of crystalline Drug 2) was “about 0.01 μg/ml”, the AUC (Drug 2, to 0 min) was 0 min-μg/mL and the AUC (Drug 2, to 4 min) was less than 2 min-μg/mL. It also gave an AUC (Drug 2, to 10 min) of less than 8 min-μg/mL, an AUC (Drug 2, to 20 min) of less than 18 min-μg/mL and an AUC (Drug 2, to 40 min) of less than 38 min-μg/mL. For the same compound, the AUC (Drug 2, to 90 min) was less than 88 min-μg/mL, the AUC (Drug 2, to 1200 min) was <1,200 min-μg/mL and the “Drug 2 Concentration” value (0 min) was 0 µg/mL. For the same compound, the “Drug 2 Concentration” value (4 min) was less than 1 µg/mL, the “Drug 2 Concentration” value (10 min) was less than 1 µg/mL and the “Drug 2 Concentration” value (20 min) was less than 1 µg/mL. The “Drug 2 Concentration” value (40 min) was less than 1 µg/mL, the “Drug 2 Concentration” value (90 min) was less than 1 µg/mL and the “Drug 2 Concentration” value (1200 min) was less than 1 µg/mL. For the same compound, the AUC90 (Table 6, area under the aqueous concentration versus time curve after 90 minutes, Drug 2, PBS, TCmax about 1000 μg/mL) was less than 88 min-μg/mL, the C1200 (Table 6, concentration of Drug 2 at 1200 minutes, PBS, TCmax about 1000 μg/mL) was less than 1 µg/mL and the “Cmax, 90” value (Table 6, maximum concentration of Drug 2 in solution during the first 90 minutes, PBS, TCmax about 1000 μg/mL) was less than 1000 ng/mL. The AUC90 [1] was less than 1470 ng·h/mL, the “Cmax, 90” value [1] was less than 1000 ng/mL and the AUC90 [2] was less than 88 min-μg/mL. The “Cmax, 90” value [2] was less than 1000 ng/mL, the AUC90 [3] was less than 88 min-μg/mL and the “Cmax, 90” value [3] was less than 1000 ng/mL. For the same compound, the AUC90 (Table 41: Drug 2, PBS) was less than 88 min-μg/mL, the “Cmax, 90” value (Table 41: Drug 2, PBS) was less than 1000 ng/mL and the AUC90 (Table 44: Drug 2, PBS) was less than 88 min-μg/mL. For the same compound, the “Cmax, 90” value (Table 44: Drug 2, PBS) was less than 1000 ng/mL.
